Source: ChEMBL document CHEMBL3046824, “Synthesis and pharmacological evaluation of newer thiazolo [3,2-a] pyrimidines for anti-inflammatory and antinociceptive activity” (Med Chem Res, 2010)

Experiments:
Mus musculus = assay: Antinociceptive activity in albino Mus musculus (mouse) assessed as increase in latency for tail withdrawal at 20 mg/kg, po measured after 4 hr by thermal stimulus method relative to control; type: functional
Rattus norvegicus [1] = assay: Anti-inflammatory activity in albino Rattus norvegicus (rat) assessed as inhibition of carrageenan-induced paw edema at 25 mg/kg, po administered 1 hr prior to carrageenan-challenge measured after 1 to 3 hr relative to control; type: functional
[2] = Toxicity in ip dosed albino Mus musculus (mouse) measured after 24 hr; type: organism-based; conditions: in vivo, read-out: ALD50
[3] = Ulcerogenic activity in ip dosed fasted albino Rattus norvegicus (rat) measured after 8 hr; type: toxicity, organism-based; conditions: in vivo, read-out: UD50
Rattus norvegicus [4] = assay: Anti-inflammatory activity in albino Rattus norvegicus (rat) assessed as inhibition of carrageenan-induced paw edema at 100 mg/kg, po administered 1 hr prior to carrageenan-challenge measured after 1 to 3 hr relative to control; type: functional
Rattus norvegicus [5] = assay: Anti-inflammatory activity in albino Rattus norvegicus (rat) assessed as inhibition of carrageenan-induced paw edema at 50 mg/kg, po administered 1 hr prior to carrageenan-challenge measured after 1 to 3 hr relative to control; type: functional

Row | Structure (SMILES) | Activity (Mus musculus) [%] | inhibition in vivo at 25 mg/kg (Rattus norvegicus [1]) [%] | LD50 at 24 h [2] [mg/kg] | TD50 at 8 h [3] [mg/kg] | inhibition in vivo at 100 mg/kg (Rattus norvegicus [4]) [%] | inhibition in vivo at 50 mg/kg (Rattus norvegicus [5]) [%]
1 | O=C(O)Cc1ccccc1Nc1c(Cl)cccc1Cl [DICLOFENAC] | 274 |  |  |  |  | 
2 | CC1=C(C(=O)Nc2ccc(F)cc2)C(c2ccc(Br)cc2)n2c(s/c(=C/c3ccc(Cl)cc3Cl)c2=O)=N1 (centres undefined) | 31 | 14 |  |  |  | 
3 | CC1=C(C(=O)Nc2ccc(F)cc2)C(c2ccc(Br)cc2)n2c(s/c(=C/c3ccc(C)cc3)c2=O)=N1 (centres undefined) | 72 | 11 |  |  |  | 
4 | CC1=C(C(=O)Nc2ccc(F)cc2)C(c2ccc(Cl)cc2)n2c(s/c(=C/c3ccc(F)cc3)c2=O)=N1 (centres undefined) | 172 | 44 | > 1000 | 240 | 80 | 60
5 | CC1=C(C(=O)Nc2ccc(F)cc2)C(c2ccc(Cl)cc2)n2c(s/c(=C/c3ccccc3Cl)c2=O)=N1 (centres undefined) | 63 | 16 |  |  |  | 
6 | CCCCC1C(=O)N(c2ccccc2)N(c2ccccc2)C1=O [PHENYLBUTAZONE] |  | 43 | > 1000 | 70.2 | 70 | 55
7 | CC1=C(C(=O)Nc2ccc(F)cc2)C(c2ccc(Br)cc2)n2c(s/c(=C/c3ccccc3)c2=O)=N1 (centres undefined) | 76 | 5 |  |  |  | 
8 | CC1=C(C(=O)Nc2ccc(F)cc2)C(c2ccc(Br)cc2)n2c(s/c(=C/c3ccc(Cl)cc3)c2=O)=N1 (centres undefined) | 104 | 25 |  |  |  | 
9 | CC1=C(C(=O)Nc2ccc(F)cc2)C(c2ccc(Cl)cc2)n2c(s/c(=C/c3ccc(Br)cc3)c2=O)=N1 (centres undefined) | 76 | 35 |  |  |  | 
10 | CC1=C(C(=O)Nc2ccc(F)cc2)C(c2ccc(F)cc2)n2c(s/c(=C/c3ccc([N+](=O)[O-])cc3)c2=O)=N1 (centres undefined) | 121 | 30 |  |  |  | 
11 | CC1=C(C(=O)Nc2ccc(F)cc2)C(c2ccc([N+](=O)[O-])cc2)n2c(s/c(=C/c3ccc(Cl)cc3)c2=O)=N1 (centres undefined) | 104 | 23 |  |  |  | 
12 | CC1=C(C(=O)Nc2ccc(F)cc2)C(c2ccc([N+](=O)[O-])cc2)n2c(s/c(=C/c3ccccc3)c2=O)=N1 (centres undefined) | 93 | 7 |  |  |  | 
13 | CC1=C(C(=O)Nc2ccc(F)cc2)C(c2ccccc2[N+](=O)[O-])n2c(s/c(=C/c3ccc(Br)cc3)c2=O)=N1 (centres undefined) | 100 | 16 |  |  |  | 
14 | COc1ccc(/C=c2/sc3n(c2=O)C(c2ccc(Br)cc2)C(C(=O)Nc2ccc(F)cc2)=C(C)N=3)cc1OC (centres undefined) | 23 | 8 |  |  |  | 
15 | CC1=C(C(=O)Nc2ccc(F)cc2)C(c2ccc([N+](=O)[O-])cc2)n2c(s/c(=C/c3ccc(Cl)cc3Cl)c2=O)=N1 (centres undefined) | 121 | 17 |  |  |  | 
16 | CC1=C(C(=O)Nc2ccc(F)cc2)C(c2ccc(F)cc2)n2c(s/c(=C/c3ccc(Cl)cc3)c2=O)=N1 (centres undefined) | 189 | 47 | > 1000 | 175 | 78 | 50
17 | CC1=C(C(=O)Nc2ccc(F)cc2)C(c2ccc(Cl)cc2)n2c(s/c(=C/c3ccc(Cl)cc3Cl)c2=O)=N1 (centres undefined) | 46 | 14 |  |  |  | 
18 | CC1=C(C(=O)Nc2ccc(F)cc2)C(c2ccc(Cl)cc2)n2c(s/c(=C/c3ccccc3[N+](=O)[O-])c2=O)=N1 (centres undefined) | 82 | 16 |  |  |  | 
19 | COc1ccc(/C=c2/sc3n(c2=O)C(c2ccc([N+](=O)[O-])cc2)C(C(=O)Nc2ccc(F)cc2)=C(C)N=3)cc1 (centres undefined) | 46 | 12 |  |  |  | 
20 | CC1=C(C(=O)Nc2ccc(F)cc2)C(c2ccc(F)cc2)n2c(s/c(=C/c3ccccc3Cl)c2=O)=N1 (centres undefined) | 119 | 19 |  |  |  | 
21 | CC1=C(C(=O)Nc2ccc(F)cc2)C(c2ccccc2[N+](=O)[O-])n2c(s/c(=C/c3ccccc3Cl)c2=O)=N1 (centres undefined) | 72 | 12 |  |  |  | 
22 | CC1=C(C(=O)Nc2ccc(F)cc2)C(c2ccc([N+](=O)[O-])cc2)n2c(s/c(=C/c3ccccc3Cl)c2=O)=N1 (centres undefined) | 140 | 19 |  |  |  | 
